The source made the active and inactive calls.
Legend:
[1] = molecular target: T1, Cytochrome P450 2C9 (Homo sapiens, UniProt P11712); conditions: Potency
[2] = molecular target: T2, Cytochrome P450 3A4 (Homo sapiens, UniProt P08684); conditions: Potency
[3] = molecular target: NACHT, LRR and PYD domains-containing protein 1 (Homo sapiens, UniProt Q9C000); experiment: NALP1 inhibitors in yeast, dose response, luminescent (AID 488860); type: functional
[4] = system: Saccharomyces cerevisiae; experiment: NALP1 inhibitor project selectivity study, Caspase-1/ASC signal blockade IC50 in S. cerevisiae (AID 488863); type: functional, organism-based
[5] = molecular target: Prothrombin (Homo sapiens, UniProt P00734); experiment: Thrombin 1536 HTS Dose Response Confirmation. [Related pubchem assays: 1046 (Thrombin 1536 HTS; hits were confirmed in this assay)]; type: functional
[6] = molecular target: T1, Cytochrome P450 2C9
[7] = molecular target: T2, Cytochrome P450 3A4
[8] = molecular target: Trypsin (Sus scrofa, UniProt P00761); experiment: porcine trypsin inhibitors, dose response, selectivity assay for Rce1 protease inhibitor project, biochemical, quenched peptide fluorescence, cherry-pick (AID 488789)
[9] = molecular target: T3, CAAX prenyl protease 2 (Homo sapiens, UniProt Q9Y256); experiment: human Rce1 protease inhibitors, dose response, biochemical, yeast membranes, quenched-peptide fluorescence, cherry-pick (AID 588849)
T3 sequence (Q9Y256 whole entry): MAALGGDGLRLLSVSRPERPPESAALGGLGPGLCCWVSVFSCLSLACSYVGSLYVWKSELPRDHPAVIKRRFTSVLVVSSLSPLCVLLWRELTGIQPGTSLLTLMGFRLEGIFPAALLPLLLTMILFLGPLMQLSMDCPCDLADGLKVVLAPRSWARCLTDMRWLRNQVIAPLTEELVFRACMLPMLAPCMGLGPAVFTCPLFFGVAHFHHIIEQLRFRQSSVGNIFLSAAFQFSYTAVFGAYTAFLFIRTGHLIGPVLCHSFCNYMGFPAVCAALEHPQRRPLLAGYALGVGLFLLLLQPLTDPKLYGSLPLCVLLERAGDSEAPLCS

[10] = molecular target: T4, Streptokinase A (Streptococcus pyogenes serotype M1, UniProt P10520); experiment: S. pyogenes streptokinase expression inhibitors, potency, dose response, plasminogen activation absorbance, OD405 (AID 1914); type: functional, Streptococcus pyogenes M1 GAS;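 note: secreted streptokinase activity via plasminogen activation per viability signal from cell pellet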
T4 sequence (P10520 whole entry): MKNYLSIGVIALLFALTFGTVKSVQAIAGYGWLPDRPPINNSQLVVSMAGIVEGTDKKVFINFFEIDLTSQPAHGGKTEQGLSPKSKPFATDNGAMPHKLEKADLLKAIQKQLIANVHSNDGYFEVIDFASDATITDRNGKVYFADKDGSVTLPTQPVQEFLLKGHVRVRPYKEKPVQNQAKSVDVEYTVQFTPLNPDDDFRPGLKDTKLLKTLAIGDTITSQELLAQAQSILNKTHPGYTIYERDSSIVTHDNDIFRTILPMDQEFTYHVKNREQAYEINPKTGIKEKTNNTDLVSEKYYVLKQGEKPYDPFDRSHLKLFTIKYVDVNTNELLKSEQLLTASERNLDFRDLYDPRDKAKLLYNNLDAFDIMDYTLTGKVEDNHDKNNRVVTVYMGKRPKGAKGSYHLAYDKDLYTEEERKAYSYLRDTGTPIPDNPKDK

[11] = system: Streptococcus; experiment: Group A Streptococcus viability loss, dose response, counter-screen for streptokinase expression inhibitor project, luminescence, BacTiterGlo (AID 1915); type: functional, organism-based;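 note: potency for reduction of bacterial viability or growth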
[12] = system: Streptococcus sp. 'group A'; experiment: growth inhibition of control SK(-) GAS strain, dose response, counter-screen for streptokinase expression inhibitor project, luminescence, kanamycin, BacTiterGlo, confirmation (AID 1900); type: functional, organism-based
[13] = molecular target: CAAX prenyl protease 2 (Saccharomyces cerevisiae S288c, UniProt Q03530); type: biochemical
[14] = molecular target: Voltage-dependent T-type calcium channel subunit alpha-1H (Homo sapiens, UniProt O95180); type: functional;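 note: channel activity triggered by adding a high calcium stimulation buffer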
[15] = molecular target: T2, Cytochrome P450 3A4; remark: listed apart in the source
[16] = molecular target: T5, Cytochrome P450 1A2 (Homo sapiens, UniProt P05177);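 note: PubChem cytochrome P450 panel assay, CYP1A2 panel member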
T5 sequence (P05177 whole entry): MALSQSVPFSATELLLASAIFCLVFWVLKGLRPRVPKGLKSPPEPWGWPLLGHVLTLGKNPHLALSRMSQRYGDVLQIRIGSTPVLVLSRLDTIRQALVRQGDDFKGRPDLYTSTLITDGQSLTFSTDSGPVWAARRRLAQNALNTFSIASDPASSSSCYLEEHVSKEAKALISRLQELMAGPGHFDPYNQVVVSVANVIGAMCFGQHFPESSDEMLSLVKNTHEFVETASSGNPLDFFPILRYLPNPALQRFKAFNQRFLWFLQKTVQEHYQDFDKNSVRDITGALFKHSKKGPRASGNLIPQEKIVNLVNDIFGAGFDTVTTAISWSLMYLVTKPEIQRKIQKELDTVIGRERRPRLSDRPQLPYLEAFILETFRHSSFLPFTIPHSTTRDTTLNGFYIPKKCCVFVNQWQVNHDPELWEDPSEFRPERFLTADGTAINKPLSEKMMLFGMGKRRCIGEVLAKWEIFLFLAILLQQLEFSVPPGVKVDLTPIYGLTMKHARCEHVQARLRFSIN

[17] = molecular target: T1, Cytochrome P450 2C9; remark: listed apart in the source
[18] = molecular target: Phospholipase A2 (Homo sapiens, UniProt P04054); type: functional;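 note: confirmatory dose-response counterscreen on phospholipase A2, testing hits that came from an ultra-high-throughput screen for ATG4B inhibitors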
[19] = molecular target: T6, Cysteine protease ATG4B (Homo sapiens, UniProt Q9Y4P1); type: functional;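 note: Fluorescence-based dose-response confirmation assay measuring inhibition of ATG4B activity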
T6 sequence (Q9Y4P1 whole entry): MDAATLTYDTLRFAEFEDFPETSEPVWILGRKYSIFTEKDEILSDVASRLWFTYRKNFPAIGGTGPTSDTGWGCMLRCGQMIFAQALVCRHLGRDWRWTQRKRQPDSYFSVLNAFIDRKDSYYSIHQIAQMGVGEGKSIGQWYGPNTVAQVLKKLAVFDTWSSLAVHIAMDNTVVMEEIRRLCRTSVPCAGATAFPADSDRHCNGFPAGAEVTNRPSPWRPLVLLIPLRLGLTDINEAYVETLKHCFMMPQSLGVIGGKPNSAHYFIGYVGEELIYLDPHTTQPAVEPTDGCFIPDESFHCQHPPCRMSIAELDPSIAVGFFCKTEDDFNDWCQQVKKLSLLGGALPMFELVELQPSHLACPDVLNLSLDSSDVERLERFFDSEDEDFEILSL

[20] = THP-1 cell cytotoxicity, dose response, cytotoxicity control for Vif-APOBEC3G degradation inhibitor project, THP-1 cells (AID 1117359); type: functional; conditions: Human immunodeficiency virus 1, THP-1
[21] = molecular target: T7, Runt-related transcription factor 1/Core-binding factor subunit beta (Homo sapiens, UniProt Q01196+Q13951); experiment: inhibitors of RUNX1 Runt–CBFb-SMMHC binding, primary screen, biochemical, FRET, Cerulean-Runt, Venus-CBFb-SMMHC, uHTS (AID 1434); type: protein assay;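 note: partner is the CBFb-SMMHC leukemia fusion protein rather than wild-type CBFb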
[22] = molecular target: T7, Runt-related transcription factor 1/Core-binding factor subunit beta; experiment: inhibitors of RUNX1 Runt–CBFb-SMMHC binding, biochemical, TR-FRET (AID 1438); type: protein assay
[23] = molecular target: NS3 (Hepatitis C virus, UniProt A3EZJ3); experiment: PubChem AID 2173; design: species or system Hepacivirus hominis
[24] = A Cell Based Secondary Assay To Explore Cytotoxicity of Compounds that Sensitize Mycobacterium Tuberculosis to Beta-Lactam Antibiotics.; type: functional
[25] = molecular target: T8, Calpain-2 catalytic subunit (Sus scrofa, UniProt P43367); experiment: pig calpain II inhibitor potency, dose response, biochemical, fluorogenic peptide substrate (AID 1420); type: functional
T8 sequence (P43367 whole entry): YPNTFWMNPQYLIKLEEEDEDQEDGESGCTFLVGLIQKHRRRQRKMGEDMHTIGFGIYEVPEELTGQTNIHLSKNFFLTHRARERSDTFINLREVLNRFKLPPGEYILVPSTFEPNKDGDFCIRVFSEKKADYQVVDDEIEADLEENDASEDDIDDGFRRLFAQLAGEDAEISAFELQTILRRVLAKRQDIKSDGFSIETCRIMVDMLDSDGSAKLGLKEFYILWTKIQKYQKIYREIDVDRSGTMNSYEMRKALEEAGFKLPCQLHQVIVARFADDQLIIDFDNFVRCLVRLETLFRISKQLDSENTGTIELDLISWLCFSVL

[26] = molecular target: Coagulation factor XII (Homo sapiens, UniProt P00748); type: functional;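 note: activated factor XIIa alpha cleaving a fluorogenic AMC peptide substrate; inhibitor potency from loss of enzyme activity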
[27] = system: HEK293; experiment: cells; conditions: Homo sapiens;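 note: cells exposed to compound for 14 hours overnight before viability readout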
[28] = molecular target: T9, Nucleotide-binding oligomerization domain-containing protein 1 (Homo sapiens, UniProt Q9Y239); experiment: NOD1 signaling inhibitors, SAR follow-up, revised (AID 2333); type: functional
T9 sequence (Q9Y239 whole entry): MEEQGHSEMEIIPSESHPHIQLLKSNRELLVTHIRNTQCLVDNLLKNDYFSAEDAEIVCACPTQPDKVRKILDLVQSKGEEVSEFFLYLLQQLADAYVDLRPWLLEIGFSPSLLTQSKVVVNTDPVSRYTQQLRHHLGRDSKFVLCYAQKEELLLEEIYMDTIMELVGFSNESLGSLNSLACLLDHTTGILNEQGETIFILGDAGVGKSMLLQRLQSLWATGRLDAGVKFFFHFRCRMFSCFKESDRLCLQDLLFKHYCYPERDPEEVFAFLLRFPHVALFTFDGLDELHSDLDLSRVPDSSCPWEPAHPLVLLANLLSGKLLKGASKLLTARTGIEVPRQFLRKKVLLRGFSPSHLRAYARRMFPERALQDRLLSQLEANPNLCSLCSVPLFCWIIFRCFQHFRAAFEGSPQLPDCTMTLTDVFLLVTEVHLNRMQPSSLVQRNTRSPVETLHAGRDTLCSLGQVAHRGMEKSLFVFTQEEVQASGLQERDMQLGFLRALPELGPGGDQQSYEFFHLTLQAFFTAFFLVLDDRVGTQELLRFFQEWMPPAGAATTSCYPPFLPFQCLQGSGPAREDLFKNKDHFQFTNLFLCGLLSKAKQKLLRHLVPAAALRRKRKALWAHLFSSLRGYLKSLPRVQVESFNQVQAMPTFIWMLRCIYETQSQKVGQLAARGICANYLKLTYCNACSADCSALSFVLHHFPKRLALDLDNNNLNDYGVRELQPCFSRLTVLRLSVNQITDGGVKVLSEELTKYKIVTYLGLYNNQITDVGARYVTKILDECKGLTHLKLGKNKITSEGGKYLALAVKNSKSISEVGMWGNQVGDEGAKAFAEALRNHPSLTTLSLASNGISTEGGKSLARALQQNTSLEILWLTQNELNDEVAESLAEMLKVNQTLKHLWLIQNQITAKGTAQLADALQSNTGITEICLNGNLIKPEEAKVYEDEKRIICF

[29] = molecular target: Tumor necrosis factor (Homo sapiens, UniProt P01375); experiment: TNFa-triggered NF-kB activation inhibitors, SAR follow-up, cell-based, revised (AID 2337); type: functional
[30] = molecular target: Phosphoethanolamine/phosphocholine phosphatase (Homo sapiens, UniProt Q8TCT1); experiment: SAR assay for compounds that inhibit PHOSPHO1. [Related pubchem assays (depositor defined):AID1545, AID1565, AID1574]

T7 sequence (Q01196 whole entry, the tested form may be a part): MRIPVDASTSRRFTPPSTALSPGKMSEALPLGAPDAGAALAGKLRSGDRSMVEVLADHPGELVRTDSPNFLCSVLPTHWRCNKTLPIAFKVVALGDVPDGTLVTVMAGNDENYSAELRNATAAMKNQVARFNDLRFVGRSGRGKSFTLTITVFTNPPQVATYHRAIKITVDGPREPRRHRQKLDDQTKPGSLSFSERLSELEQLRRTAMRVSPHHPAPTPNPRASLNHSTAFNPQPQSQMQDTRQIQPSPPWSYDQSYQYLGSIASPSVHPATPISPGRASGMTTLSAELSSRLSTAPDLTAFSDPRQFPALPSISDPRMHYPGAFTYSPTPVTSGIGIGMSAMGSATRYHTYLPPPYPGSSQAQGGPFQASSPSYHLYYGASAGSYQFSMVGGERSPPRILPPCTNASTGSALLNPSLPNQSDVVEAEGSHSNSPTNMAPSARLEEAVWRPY
T7 sequence (Q13951 whole entry, the tested form may be a part): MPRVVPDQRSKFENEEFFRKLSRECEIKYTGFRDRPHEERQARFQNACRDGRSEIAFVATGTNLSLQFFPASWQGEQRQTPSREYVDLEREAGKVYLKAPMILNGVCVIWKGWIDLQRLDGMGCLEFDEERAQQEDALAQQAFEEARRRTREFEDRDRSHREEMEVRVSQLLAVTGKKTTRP
T1 sequence (P11712 whole entry): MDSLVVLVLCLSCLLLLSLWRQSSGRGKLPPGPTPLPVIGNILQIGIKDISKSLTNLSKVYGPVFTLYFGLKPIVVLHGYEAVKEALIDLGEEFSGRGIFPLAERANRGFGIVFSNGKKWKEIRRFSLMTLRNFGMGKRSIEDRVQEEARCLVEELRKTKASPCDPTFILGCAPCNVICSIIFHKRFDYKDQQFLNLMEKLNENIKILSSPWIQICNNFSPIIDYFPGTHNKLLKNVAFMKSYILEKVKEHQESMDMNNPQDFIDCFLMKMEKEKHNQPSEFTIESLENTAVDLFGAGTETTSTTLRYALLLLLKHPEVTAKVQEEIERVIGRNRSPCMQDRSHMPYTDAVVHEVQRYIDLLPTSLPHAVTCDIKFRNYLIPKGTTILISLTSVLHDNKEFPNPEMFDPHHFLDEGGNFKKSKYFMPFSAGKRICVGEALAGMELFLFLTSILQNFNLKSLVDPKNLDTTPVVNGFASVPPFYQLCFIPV
T2 sequence (P08684 whole entry, the tested form may be a part): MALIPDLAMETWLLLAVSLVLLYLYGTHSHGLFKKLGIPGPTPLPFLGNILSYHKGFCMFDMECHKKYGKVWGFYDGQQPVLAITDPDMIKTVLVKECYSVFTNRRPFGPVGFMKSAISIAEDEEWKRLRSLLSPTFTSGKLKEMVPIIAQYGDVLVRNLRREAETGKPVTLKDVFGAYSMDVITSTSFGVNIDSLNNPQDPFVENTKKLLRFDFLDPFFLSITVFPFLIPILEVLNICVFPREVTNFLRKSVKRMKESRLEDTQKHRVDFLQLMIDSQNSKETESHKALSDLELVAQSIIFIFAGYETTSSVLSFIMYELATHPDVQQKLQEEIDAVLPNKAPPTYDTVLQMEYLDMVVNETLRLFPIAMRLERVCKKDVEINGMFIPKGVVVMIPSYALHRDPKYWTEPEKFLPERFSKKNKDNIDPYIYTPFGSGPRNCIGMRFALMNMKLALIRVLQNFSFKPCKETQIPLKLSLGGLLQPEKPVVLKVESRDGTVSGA
Sequence of CAAX prenyl protease 2 (Saccharomyces cerevisiae S288c, UniProt Q03530) (Q03530 whole entry): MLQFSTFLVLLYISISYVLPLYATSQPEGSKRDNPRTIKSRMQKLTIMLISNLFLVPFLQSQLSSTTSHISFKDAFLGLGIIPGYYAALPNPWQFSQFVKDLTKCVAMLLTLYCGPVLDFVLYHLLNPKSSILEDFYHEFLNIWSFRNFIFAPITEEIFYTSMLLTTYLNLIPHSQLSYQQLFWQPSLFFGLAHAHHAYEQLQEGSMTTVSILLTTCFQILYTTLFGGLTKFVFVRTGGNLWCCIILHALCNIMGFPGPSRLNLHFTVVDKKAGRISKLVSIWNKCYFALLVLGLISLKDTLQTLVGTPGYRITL
Sequence of Voltage-dependent T-type calcium channel subunit alpha-1H (O95180 whole entry): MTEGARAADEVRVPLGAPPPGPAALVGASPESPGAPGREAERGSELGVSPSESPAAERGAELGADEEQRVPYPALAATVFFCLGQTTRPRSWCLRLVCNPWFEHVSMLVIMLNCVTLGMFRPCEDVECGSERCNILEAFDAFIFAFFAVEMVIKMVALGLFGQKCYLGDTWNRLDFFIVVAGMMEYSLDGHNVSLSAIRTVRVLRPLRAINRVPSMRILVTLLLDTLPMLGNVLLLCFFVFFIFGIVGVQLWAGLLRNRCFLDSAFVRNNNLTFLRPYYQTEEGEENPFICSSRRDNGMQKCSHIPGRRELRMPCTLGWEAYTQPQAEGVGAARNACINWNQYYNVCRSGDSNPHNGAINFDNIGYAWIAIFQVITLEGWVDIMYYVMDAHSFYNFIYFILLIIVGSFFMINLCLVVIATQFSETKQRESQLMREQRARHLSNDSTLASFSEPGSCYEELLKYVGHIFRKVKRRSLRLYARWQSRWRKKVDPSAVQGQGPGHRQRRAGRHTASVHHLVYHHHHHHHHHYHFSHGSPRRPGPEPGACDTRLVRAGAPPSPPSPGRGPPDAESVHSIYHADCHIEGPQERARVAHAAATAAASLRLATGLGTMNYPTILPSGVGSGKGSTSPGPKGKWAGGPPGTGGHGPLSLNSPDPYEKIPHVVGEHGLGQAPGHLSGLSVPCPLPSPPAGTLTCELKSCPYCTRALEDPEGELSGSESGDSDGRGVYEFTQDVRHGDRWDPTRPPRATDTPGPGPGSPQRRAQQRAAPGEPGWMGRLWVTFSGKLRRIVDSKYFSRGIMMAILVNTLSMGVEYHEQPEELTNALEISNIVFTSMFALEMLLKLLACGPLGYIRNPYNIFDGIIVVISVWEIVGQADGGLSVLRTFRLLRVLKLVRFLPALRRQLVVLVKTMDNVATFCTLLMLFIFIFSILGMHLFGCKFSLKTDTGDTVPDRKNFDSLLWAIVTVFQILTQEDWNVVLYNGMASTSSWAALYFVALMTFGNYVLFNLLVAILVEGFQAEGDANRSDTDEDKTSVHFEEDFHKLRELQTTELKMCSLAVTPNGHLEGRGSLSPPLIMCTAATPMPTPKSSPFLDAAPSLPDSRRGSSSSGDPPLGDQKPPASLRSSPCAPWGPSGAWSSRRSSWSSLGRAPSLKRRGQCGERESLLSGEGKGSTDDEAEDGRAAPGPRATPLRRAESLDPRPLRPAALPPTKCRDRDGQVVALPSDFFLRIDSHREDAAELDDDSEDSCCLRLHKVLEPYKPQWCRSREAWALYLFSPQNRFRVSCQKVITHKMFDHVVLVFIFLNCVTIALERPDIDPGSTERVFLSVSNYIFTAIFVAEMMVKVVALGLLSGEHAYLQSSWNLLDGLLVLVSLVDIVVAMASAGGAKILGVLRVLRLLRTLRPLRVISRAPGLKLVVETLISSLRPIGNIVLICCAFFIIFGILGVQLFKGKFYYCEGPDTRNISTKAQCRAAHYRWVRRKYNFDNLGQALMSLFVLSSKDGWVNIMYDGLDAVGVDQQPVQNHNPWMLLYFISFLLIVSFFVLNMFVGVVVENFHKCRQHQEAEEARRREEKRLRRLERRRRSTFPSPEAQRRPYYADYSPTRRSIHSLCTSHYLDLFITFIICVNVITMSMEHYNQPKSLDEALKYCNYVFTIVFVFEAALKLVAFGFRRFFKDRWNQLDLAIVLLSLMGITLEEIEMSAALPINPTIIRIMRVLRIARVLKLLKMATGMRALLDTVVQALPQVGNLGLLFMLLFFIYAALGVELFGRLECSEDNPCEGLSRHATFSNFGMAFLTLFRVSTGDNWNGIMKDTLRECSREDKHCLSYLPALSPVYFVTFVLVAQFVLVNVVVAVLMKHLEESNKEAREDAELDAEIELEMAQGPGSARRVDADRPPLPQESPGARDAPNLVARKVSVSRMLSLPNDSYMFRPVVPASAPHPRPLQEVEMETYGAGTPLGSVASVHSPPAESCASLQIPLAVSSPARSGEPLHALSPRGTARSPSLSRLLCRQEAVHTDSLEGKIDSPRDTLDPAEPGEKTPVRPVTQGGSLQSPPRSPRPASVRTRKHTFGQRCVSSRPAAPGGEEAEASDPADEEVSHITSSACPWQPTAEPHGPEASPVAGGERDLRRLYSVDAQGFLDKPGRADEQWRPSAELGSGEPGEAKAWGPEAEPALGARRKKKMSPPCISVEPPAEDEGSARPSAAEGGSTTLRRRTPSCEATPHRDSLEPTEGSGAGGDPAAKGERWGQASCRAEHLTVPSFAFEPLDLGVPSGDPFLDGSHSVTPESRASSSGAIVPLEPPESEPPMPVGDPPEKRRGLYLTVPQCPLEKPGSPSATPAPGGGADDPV
Sequence of Coagulation factor XII (P00748 20-372 limits assumed): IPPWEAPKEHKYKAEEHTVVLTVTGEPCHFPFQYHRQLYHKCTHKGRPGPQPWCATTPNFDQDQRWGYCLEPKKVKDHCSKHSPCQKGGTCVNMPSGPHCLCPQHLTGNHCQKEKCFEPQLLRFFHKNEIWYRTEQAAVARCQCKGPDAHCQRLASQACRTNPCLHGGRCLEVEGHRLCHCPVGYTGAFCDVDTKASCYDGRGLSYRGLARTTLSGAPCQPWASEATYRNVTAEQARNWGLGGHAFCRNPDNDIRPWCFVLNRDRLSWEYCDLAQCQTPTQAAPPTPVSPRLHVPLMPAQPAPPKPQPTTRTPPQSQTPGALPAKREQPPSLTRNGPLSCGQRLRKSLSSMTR
Sequence of Coagulation factor XII (P00748 373-615 limits assumed): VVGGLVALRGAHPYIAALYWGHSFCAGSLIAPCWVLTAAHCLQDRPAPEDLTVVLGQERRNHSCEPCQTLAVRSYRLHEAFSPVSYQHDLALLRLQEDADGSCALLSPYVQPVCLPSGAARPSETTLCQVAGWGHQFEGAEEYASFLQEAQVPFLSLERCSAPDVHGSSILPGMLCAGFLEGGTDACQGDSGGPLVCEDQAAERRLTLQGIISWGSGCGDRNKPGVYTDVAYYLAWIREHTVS

## COc1cc2c(cc1O)-c1c(O)c(OC)cc3c1[C@H](C2)N(C)CC3
[1]
  AC50: 31.6 µM (inconclusive)
[2]
  AC50: 20 µM (inconclusive)

## Cc1ccc2c(c1)c1c3n2CCCNC3CCC1 (configuration not stated)
[3]
  IC50: > 100 µM (inactive)
[4]
  IC50: 87.6 µM (active)
[5]
  IC50: > 50 µM (not active)

## CC(=O)[C@@H]1CC[C@@H]2[C@@H]3CCC4=CC(=O)CC[C@@]4(C)[C@H]3CC[C@]21C
[1]
  AC50: 39.8 µM (inconclusive)
[6]
  AC50: 15.8 µM (inconclusive)
[7]
  AC50: inconclusive

## COc1cc2nc3c(O)n(CCN4CCOCC4)cnc-3c2cc1OC
[8]
  AC50: 16.1 µM (active)
[9]
  AC50: 9.95 µM (active)

## CCCCNc1c(-c2ccc(SC(C)CC)c(OC)c2)nc2ccc(C)cn12 (configuration not stated)
[8]
  AC50: 2.63 µM (active)
[10]
  EC50: 8.79 µM (active)
[11]
  EC50: 10.2 µM (active)
[12]
  EC50: 3.09 µM (active)
[9]
  AC50: 32.5 µM (active)
[13]
  AC50: 39.7 µM (active)

## O=S(=O)(Nc1ccc(S(=O)(=O)N2CCCCC2)cc1)c1ccc(Br)s1
[14]
  EC50: 3.58 µM (active)

## c1coc(-c2ccnc3ncnn23)c1
[9]
  AC50: 3.88 µM (active)
[13]
  AC50: 24.5 µM (active)

## CN(C)c1ccc(/C=C2\SC(=S)N(Nc3ncc(C(F)(F)F)cc3Cl)C2=O)cc1
[15]
  AC50: 14.1 µM (inconclusive)
[16]
  AC50: 5.01 µM (inconclusive)
[14]
  EC50: 2.86 µM (active)
[17]
  AC50: inconclusive

## CC1CCCCC1NC(=O)COC(=O)c1c2c(nc3ccccc13)/C(=C/c1ccco1)CC2 (configuration not stated)
[18]
  IC50: 8.31 µM (active)
[19]
  IC50: 14.4 µM (active)
[20]
  CC50: > 40 µM (active)
[21]
  IC50: > 100 µM (inactive)
[22]
  IC50: 10.6 µM (active)
[23]
  IC50: 11.1 µM (not active)

## COc1ccc(C(=O)Nc2oc(-c3ccccc3)c(-c3ccccc3)c2C#N)cc1OC
[24]
  CC50: > 40 µM (active)

## CCOCCCn1c(=N)c(C(N)=S)cc2c(=O)n3cccc(C)c3nc21
[21]
  IC50: 0.257 µM (active)
[22]
  IC50: 68.8 µM (inactive)

## O=[N+]([O-])c1cc(C(F)(F)F)ccc1NCCc1c[nH]c2ccc(O)cc12
[25]
  IC50: 7.48 µM (not active)
[24]
  CC50: > 40 µM (active)

## C=C(C)C(=O)Nc1nnc(-c2cccs2)s1
[3]
  IC50: 11 µM (active)
[4]
  IC50: 15 µM (active)

## O=C(Nc1ncnc2sc3c(c12)CCCCC3)c1ccc(F)cc1
[26]
  IC50: > 50 µM (inactive)

## COC(=O)c1c(NC(=O)c2ccc(Cl)cc2)sc2c1CCCC2
[27]
  IC50: > 20 µM (inactive)
[28]
  IC50: > 20 µM (inactive)
[29]
  IC50: > 20 µM (inactive)

## c1ccc(Nc2nc(-c3ccccc3)[n+](-c3ccccc3)s2)cc1
[30]
  IC50: 4.99 µM (inactive)

## CN(C)c1ccc(C(=S)N2CCOCC2)cc1 [(4-(DIMETHYLAMINO)PHENYL)(MORPHOLINO)METHANETHIONE]
[26]
  IC50: > 50 µM (inactive)
